# Experimental data from patent US11345711B2, “8,9-dihydroimidazo[1,2-a]pyrimido[5,4-e]pyrimidin-5(6H)-ones” (IMPACT THERAPEUTICS (SHANGHAI), INC, priority 2016, dated 2022).
# Legend:
# LoVo cells = assay: MTT based cell viability assay on LoVo cells; conditions: Homo sapiens, LoVo, 72 h, 3 d, read-out: IC50, growth inhibition of LoVo cells
# How it was run: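 Inhibition of LoVo proliferation was derived as IC50 from a sigmoidal dose-response fit of cell survival. Readout was MTT (0.5 mg/mL, 4 h) with absorbance at 552/630/690 nm, after 3-day treatment at 37 °C. Eight-point series from 10 μM to 0.01 μM, DMSO control, 1% DMSO final.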
# NCI-H1299 cells = assay: MTT based cell viability assay on NCI-H1299 cells; conditions: Homo sapiens, NCI-H1299, NCI-H1299 cells, read-out: IC50, growth inhibition of NCI-H1299 cells
# How it was run: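 NCI-H1299 cells (1000/well, settled overnight) were exposed for 3 d at 37 °C, 5% CO2, to an eight-point series of 10 μM to 0.01 μM plus DMSO blank, as prepared in DMSO (final DMSO 1‰). MTT (0.5 mg/mL, 4 h) was read at 552/630/690 nm. IC50 came from sigmoidal dose-response fits of survival.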
# Wee1 (h) = Wee1 (h) (Homo sapiens, UniProt P30291); assay: Wee1 kinase (h) detection method, [γ-33P]-ATP filter assay; format: biochemical
# Sequence of Wee1 (h) (P30291 whole entry): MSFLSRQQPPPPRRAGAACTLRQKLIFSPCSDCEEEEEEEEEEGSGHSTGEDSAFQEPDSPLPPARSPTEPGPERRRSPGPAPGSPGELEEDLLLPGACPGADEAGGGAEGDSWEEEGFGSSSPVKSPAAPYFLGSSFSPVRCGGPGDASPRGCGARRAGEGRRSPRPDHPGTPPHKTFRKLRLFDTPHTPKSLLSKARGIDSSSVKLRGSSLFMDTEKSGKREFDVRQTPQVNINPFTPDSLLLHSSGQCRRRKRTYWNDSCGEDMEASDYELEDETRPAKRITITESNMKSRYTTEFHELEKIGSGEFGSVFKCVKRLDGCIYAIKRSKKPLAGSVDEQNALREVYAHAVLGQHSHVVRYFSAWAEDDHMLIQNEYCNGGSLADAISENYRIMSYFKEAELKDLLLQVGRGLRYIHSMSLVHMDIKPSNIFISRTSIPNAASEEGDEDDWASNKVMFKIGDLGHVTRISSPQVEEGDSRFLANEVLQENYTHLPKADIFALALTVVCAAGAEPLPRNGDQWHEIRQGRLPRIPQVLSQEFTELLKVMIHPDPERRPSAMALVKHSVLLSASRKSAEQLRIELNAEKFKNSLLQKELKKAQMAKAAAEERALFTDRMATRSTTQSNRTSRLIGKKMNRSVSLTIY
SMILES,IC50 (LoVo cells) [nM],IC50 (NCI-H1299 cells) [nM],Inh. (%) of Wee1 kinase enzyme activity (Wee1 (h); C 0.01 μm compound) [%],Inh. (%) of Wee1 kinase enzyme activity (Wee1 (h); C 0.1 μm compound) [%],Inh. (%) of Wee1 kinase enzyme activity (Wee1 (h); C 1 μm compound) [%]
"Cc1cc(Nc2ncc3c(n2)N2CCN=C2N(c2c(Cl)cccc2Cl)C3=O)cc(F)c1N1CCN(C)CC1 [Example 148, 6-(2,6-Dichlorophenyl)-2-((3-fluoro-5-methyl-4-(4-methylpiperazin-1-yl)phenyl)amino)-8,9-dihydroimidazo[1,2-a]pyrimido[5,4-e]pyrimidin-5(6H)-one]",39.8,123,40,90,94
"COc1cc(Nc2ncc3c(n2)N2CCN=C2N(c2c(Cl)cccc2Cl)C3=O)cc(F)c1N1CCN(C)CC1 [Example 149, 6-(2,6-Dichlorophenyl)-2-((3-fluoro-5-methoxy-4-(4-methylpiperazin-1-yl)phenyl)amino)-8,9-dihydroimidazo[1,2-a]pyrimido[5,4-e]pyrimidin-5(6H)-one]",59.4,113,22,72,94
"CN1CCN(c2c(Cl)cc(Nc3ncc4c(n3)N3CCN=C3N(c3c(Cl)cccc3Cl)C4=O)cc2Cl)CC1 [Example 150, 6-(2,6-Dichlorophenyl)-2-((3,5-dichloro-4-(4-methylpiperazin-1-yl)phenyl)amino)-8,9-dihydroimidazo[1,2-a]pyrimido[5,4-e]pyrimidin-5(6H)-one]",116,347,20,81,93
"Cc1cc(Nc2ncc3c(n2)N2CCN=C2N(c2c(Cl)cccc2Cl)C3=O)cc(Cl)c1N1CCN(C)CC1 [Example 151, 6-(2,6-Dichlorophenyl)-2-((3-chloro-5-methyl-4-(4-methylpiperazin-1-yl)phenyl)amino)-8,9-dihydroimidazo[1,2-a]pyrimido[5,4-e]pyrimidin-5(6H)-one]",30.8,175,42,98,97
"CN1CCN(c2c(Cl)cc(Nc3ncc4c(n3)N3CCN=C3N(c3c(Cl)cccc3Cl)C4=O)cc2C(F)(F)F)CC1 [Example 152, 6-(2,6-Dichlorophenyl)-2-((3-chloro-4-(4-methylpiperazin-1-yl)-5-(trifluoromethyl)phenyl)amino)-8,9-dihydroimidazo[1,2-a]pyrimido[5,4-e]pyrimidin-5(6H)-one]",139,1950,–,–,88
"COc1cc(Nc2ncc3c(n2)N2CCN=C2N(c2c(Cl)cccc2Cl)C3=O)cc(Cl)c1N1CCN(C)CC1 [Example 153, 6-(2,6-Dichlorophenyl)-2-((3-chloro-5-methoxy-4-(4-methylpiperazin-1-yl)phenyl)amino)-8,9-dihydroimidazo[1,2-a]pyrimido[5,4-e]pyrimidin-5(6H)-one]",56.3,235,30,84,94
"CN1CCN(c2c(F)cc(Nc3ncc4c(n3)N3CCN=C3N(c3c(Cl)cccc3Cl)C4=O)cc2Br)CC1 [Example 154, 6-(2,6-Dichlorophenyl)-2-((3-bromo-5-fluoro-4-(4-methylpiperazin-1-yl)phenyl)amino)-8,9-dihydroimidazo[1,2-a]pyrimido[5,4-e]pyrimidin-5(6H)-one]",63.3,174,25,72,96
"CN1CCN(c2c(Cl)cc(Nc3ncc4c(n3)N3CCN=C3N(c3c(Cl)cccc3Cl)C4=O)cc2Br)CC1 [Example 155, 6-(2,6-Dichlorophenyl)-2-((3-bromo-5-chloro-4-(4-methylpiperazin-1-yl)phenyl)amino)-8,9-dihydroimidazo[1,2-a]pyrimido[5,4-e]pyrimidin-5(6H)-one]",74.1,109,16,66,94
"Cc1cc(Nc2ncc3c(n2)N2CCN=C2N(c2c(Cl)cccc2Cl)C3=O)cc(Br)c1N1CCN(C)CC1 [Example 156, 6-(2,6-Dichlorophenyl)-2-((3-bromo-5-methyl-4-(4-methylpiperazin-1-yl)phenyl)amino)-8,9-dihydroimidazo[1,2-a]pyrimido[5,4-e]pyrimidin-5(6H)-one]",62.7,150,19,81,96
